Laboratory results published in ChEMBL document CHEMBL4715855, “N-phenyl ureidobenzenesulfonates, a novel class of promising human dihydroorotate dehydrogenase inhibitors” (Bioorg Med Chem, 2020).

How the values were obtained:
Assay type in all cases: functional, cell-based
HT-29 [1] = assay: Antiproliferative activity against human HT-29 cells assessed as cell growth inhibition measured after 48 hrs by SRB assay; details: HT-29, 48 h
M21 [2] = assay: Antiproliferative activity against human M21 cells assessed as cell growth inhibition measured after 48 hrs by SRB assay; details: M21, 48 h
HT-29 [3] = assay: Antiproliferative activity against human HT-29 cells assessed as cell growth inhibition measured after 48 hrs in presence of uridine by SRB assay; details: HT-29, 48 h
M21 [4] = assay: Antiproliferative activity against human M21 cells assessed as cell growth inhibition measured after 48 hrs in presence of uridine by SRB assay; details: M21, 48 h
HT-1080 [5] = assay: Antiproliferative activity against human HT-1080 cells assessed as cell growth inhibition measured after 48 hrs in presence of uridine by SRB assay; details: HT-1080, 48 h
MCF7 [6] = assay: Antiproliferative activity against human MCF7 cells assessed as cell growth inhibition measured after 48 hrs in presence of uridine by SRB assay; details: MCF7, 48 h
HT-1080 [7] = assay: Antiproliferative activity against human HT-1080 cells assessed as cell growth inhibition measured after 48 hrs by SRB assay; details: HT-1080, 48 h
MCF7 [8] = assay: Antiproliferative activity against human MCF7 cells assessed as cell growth inhibition measured after 48 hrs by SRB assay; details: MCF7, 48 h
CCRF-CEM = assay: Antiproliferative activity against human CCRF-CEM cells assessed as cell growth inhibition measured after 48 hrs by sulforhodamine B assay
K562 = assay: Antiproliferative activity against human K562 cells assessed as cell growth inhibition incubated for 48 hrs by sulforhodamine B assay; details: K562, 48 h
MOLT-4 = assay: Antiproliferative activity against human MOLT-4 cells assessed as cell growth inhibition measured after 48 hrs by sulforhodamine B assay; details: MOLT-4, 48 h
RPMI-8226 = assay: Antiproliferative activity against human RPMI-8226 cells assessed as cell growth inhibition measured after 48 hrs by sulforhodamine B assay; details: RPMI-8226, 48 h
SR = assay: Antiproliferative activity against human SR cells assessed as cell growth inhibition measured after 48 hrs by sulforhodamine B assay
A549 = assay: Antiproliferative activity against human A549/ATCC cells assessed as cell growth inhibition measured after 48 hrs by sulforhodamine B assay; details: A549, 48 h
HOP-62 = assay: Antiproliferative activity against human HOP-62 cells assessed as cell growth inhibition measured after 48 hrs by sulforhodamine B assay; details: HOP-62, 48 h
HOP-92 = assay: Antiproliferative activity against human HOP-92 cells assessed as cell growth inhibition measured after 48 hrs by sulforhodamine B assay; details: HOP-92, 48 h
NCI-H226 = assay: Antiproliferative activity against human NCI-H226 cells assessed as cell growth inhibition measured after 48 hrs by sulforhodamine B assay; details: NCI-H226, 48 h
NCI-H23 = assay: Antiproliferative activity against human NCI-H23 cells assessed as cell growth inhibition measured after 48 hrs by sulforhodamine B assay; details: NCI-H23, 48 h
NCI-H322M = assay: Antiproliferative activity against human NCI-H322M cells assessed as cell growth inhibition measured after 48 hrs by sulforhodamine B assay
NCI-H460 = assay: Antiproliferative activity against human NCI-H460 cells assessed as cell growth inhibition measured after 48 hrs by sulforhodamine B assay; details: NCI-H460, 48 h
NCI-H522 = assay: Antiproliferative activity against human NCI-H522 cells assessed as cell growth inhibition measured after 48 hrs by sulforhodamine B assay; details: NCI-H522, 48 h
COLO 205 = assay: Antiproliferative activity against human COLO 205 cells assessed as cell growth inhibition measured after 48 hrs by sulforhodamine B assay; details: COLO 205, 48 h
HCC 2998 = assay: Antiproliferative activity against human HCC 2998 cells assessed as cell growth inhibition measured after 48 hrs by sulforhodamine B assay; details: HCC 2998, 48 h
HCT-116 = assay: Antiproliferative activity against human HCT-116 cells assessed as cell growth inhibition measured after 48 hrs by sulforhodamine B assay; details: HCT-116, 48 h
HCT-15 = assay: Antiproliferative activity against human HCT-15 cells assessed as cell growth inhibition measured after 48 hrs by sulforhodamine B assay; details: HCT-15, 48 h
KM12 = assay: Antiproliferative activity against human KM12 cells assessed as cell growth inhibition measured after 48 hrs by sulforhodamine B assay; details: KM12, 48 h
SW-620 = assay: Antiproliferative activity against human SW-620 cells assessed as cell growth inhibition measured after 48 hrs by sulforhodamine B assay; details: SW-620, 48 h
786-0 = assay: Antiproliferative activity against human 786-0 cells assessed as cell growth inhibition measured after 48 hrs by sulforhodamine B assay; details: 786-0, 48 h
A498 = assay: Antiproliferative activity against human A498 cells assessed as cell growth inhibition measured after 48 hrs by sulforhodamine B assay; details: A498, 48 h
ACHN = assay: Antiproliferative activity against human ACHN cells assessed as cell growth inhibition measured after 48 hrs by sulforhodamine B assay
CAKI-1 = assay: Antiproliferative activity against human CAKI-1 cells assessed as cell growth inhibition measured after 48 hrs by sulforhodamine B assay; details: CAKI-1, 48 h
RXF 393 = assay: Antiproliferative activity against human RXF 393 cells assessed as cell growth inhibition measured after 48 hrs by sulforhodamine B assay; details: RXF 393, 48 h

Compound: CCNC(=O)Nc1ccc(S(=O)(=O)Oc2ccccc2CC)cc1
- IC50 (HT-29 [1]; read-out: IC50): 0.99 µM
- IC50 (HT-29 [1]; read-out: pIC50 (converted)): 1.02 µM
- IC50 (M21 [2]): 3 µM
- IC50 (HT-29 [3]): 27 µM
- IC50 (M21 [4]): 30 µM
- IC50 (HT-1080 [5]): 7.4 µM
- IC50 (MCF7 [6]): 18 µM
- IC50 (HT-1080 [7]): 0.45 µM
- IC50 (MCF7 [8]; read-out: IC50): 5.9 µM
- IC50 (MCF7 [8]; read-out: pIC50 (converted)): 3.24 µM
- IC50 (CCRF-CEM): 0.912 µM
- IC50 (K562): 0.282 µM
- IC50 (MOLT-4): 0.282 µM
- IC50 (RPMI-8226): 1.38 µM
- IC50 (SR): 0.741 µM
- IC50 (A549): 0.955 µM
- IC50 (HOP-62): 14.5 µM
- IC50 (HOP-92): 6.61 µM
- IC50 (NCI-H226): 9.33 µM
- IC50 (NCI-H23): 12.9 µM
- IC50 (NCI-H322M): 12.9 µM
- IC50 (NCI-H460): 0.427 µM
- IC50 (NCI-H522): 1.32 µM
- IC50 (COLO 205): 2.51 µM
- IC50 (HCC 2998): 17 µM
- IC50 (HCT-116): 0.575 µM
- IC50 (HCT-15): 0.251 µM
- IC50 (KM12): 1.15 µM
- IC50 (SW-620): 2.75 µM
- IC50 (786-0): 9.12 µM
- IC50 (A498): 5.89 µM
- IC50 (ACHN): 1.58 µM
- IC50 (CAKI-1): 0.759 µM
- IC50 (RXF 393): 12.6 µM
